Reference: patent US11040031B2, “Pyrazole derivatives as MALT1 inhibitors” (Janssen Pharmaceutica NV, priority 2018, dated 2021)
pIC50: −log10 of the molar value. Like-named read-outs stand apart in the source and are kept apart here.

How the values were obtained:
[1] = tested on: Secretion of IL6 by TMD8 ABC-DLBCL cells; experiment: Human IL6 Mesoscale assay (TMD-8); format: cell-based; conditions: read-out: Human IL6 Mesoscale assay (TMD-8)
Description: (§1) NFKB signaling regulates the secretion of multiple cytokines, including IL6 and IL10. Secretion of the cytokines IL6 and IL10 by TMD8 or OCI-LY3 ABC-DLBCL cells was measured using a mesoscale assay.
(§2) Cell passage number should not exceed 30. Cells should be kept between 0.5-2.5 million cells per mL during culturing and cells should be supplemented every 2-3 days with fresh 50 µM beta-mercaptoenthanol. No beta-mercaptoethanol was used during the mesoscale assay.
(§3) DMSO control wells were used to determine the maximum signal (High Control (HC)). […] Compounds and cells were incubated for 24 h at 37° C. and 5% CO2 (assay volume is 150 μL). After 24 h of incubation 50 μL of the supernatant was transferred to a MSD plate (V-Plex Proinflammation Panel 1 (human) kit, Mesoscale (MSD)) and incubated for 2 h with vigorous shaking (600 rpm) at room temperature. Following incubation, plates were washed 3× with PBS+0.05% Tween-20 and 25 μL detection antibody solution (IL6 & IL10 antibodies in diluent 3 (MSD)) was added per well followed by 2 h of incubation with vigorous shaking (600 rpm) at room temperature. After 3× washes with PBS+0.05% Tween-20, plates were incubated with 150 μL 2× Read Buffer T and read on SECTOR imager.

[2] = tested on: Secretion of IL10 by TMD8 ABC-DLBCL cells; experiment: Human IL10 Mesoscale assay (TMD-8); format: cell-based; conditions: read-out: Human IL10 Mesoscale assay (TMD-8)
Description: as §1, §2, §3

[3] = tested on: OCI-Ly3 ABC-DLBCL cell line; experiment: 4-day proliferation assay OCI-Ly3; format: cell-based; conditions: Homo sapiens, read-out: Anti-proliferation: OCI-LY-3 IC50
Procedure, shortened: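 10,000 OCI-Ly3 cells per well cultured 4 days at 37° C., 5% CO2 without beta-mercaptoethanol, at densities giving linear growth. Viability read by CellTiterGLO luminescence after 10 min at room temperature.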

[4] = target: T1, full-length MALT1 protein (Strep-MALT1(1-824)-His) (Homo sapiens, UniProt Q9UDY8); experiment: biochemical;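 further: fluorogenic LRSR-AMC substrate cleavage by MALT1, 50 min compound preincubation then 4 h reaction at RT, 11-point dilution from 30 µM, scaled between enzyme-free and untreated enzyme controls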
T1 sequence (Q9UDY8 1-824): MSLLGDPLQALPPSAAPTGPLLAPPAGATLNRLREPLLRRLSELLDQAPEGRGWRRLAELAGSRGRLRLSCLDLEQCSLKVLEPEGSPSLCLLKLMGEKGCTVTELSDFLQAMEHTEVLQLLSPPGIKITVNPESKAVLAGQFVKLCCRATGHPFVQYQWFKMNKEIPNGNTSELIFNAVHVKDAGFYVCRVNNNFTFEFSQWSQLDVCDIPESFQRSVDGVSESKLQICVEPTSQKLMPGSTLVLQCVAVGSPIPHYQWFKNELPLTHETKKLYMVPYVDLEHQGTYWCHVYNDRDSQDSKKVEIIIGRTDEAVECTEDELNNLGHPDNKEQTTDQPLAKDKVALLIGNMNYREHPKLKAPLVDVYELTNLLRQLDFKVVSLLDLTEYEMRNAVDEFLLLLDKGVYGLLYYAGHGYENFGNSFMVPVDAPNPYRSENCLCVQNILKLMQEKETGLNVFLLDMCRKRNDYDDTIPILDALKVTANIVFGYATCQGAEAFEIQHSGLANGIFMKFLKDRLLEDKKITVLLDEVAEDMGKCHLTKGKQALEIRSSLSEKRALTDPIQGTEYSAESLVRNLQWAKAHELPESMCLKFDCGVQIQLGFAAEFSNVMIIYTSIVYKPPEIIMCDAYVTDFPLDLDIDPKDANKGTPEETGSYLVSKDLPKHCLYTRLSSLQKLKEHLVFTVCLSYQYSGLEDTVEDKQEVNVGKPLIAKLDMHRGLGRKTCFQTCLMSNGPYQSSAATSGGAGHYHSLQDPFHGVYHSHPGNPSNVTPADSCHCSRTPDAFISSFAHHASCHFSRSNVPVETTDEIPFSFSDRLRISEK

[5] = TMD8 cells, 24 h incubation, supernatant, MSD V-Plex
[6] = 96 h, 10,000 OCI-Ly3 cells per well, 4 days, CellTiterGLO

`N#Cc1cc(NC(=O)c2cnn(-c3ncc(F)cc3Br)c2C(F)(F)F)cnc1-n1nccn1` [Cpd 34, 1-(3-Bromo-5-fluoropyridin-2-yl)-N-(5-cyano-6-(2H-1,2,3-triazol-2-yl)pyridin-3-yl)-5-(trifluoromethyl)-1H-pyrazole-4-carboxamide] was tested, and the pIC50 ([1]; TMD8, 24 h) was 6.39, the pIC50 ([2]; TMD8, 24 h) was 6.20 and the pIC50 ([3]; OCI-Ly3, 96 h) was 6.34. The pIC50 [4] was 6.84.

In the case of `Cc1nccc(-n2ncc(C(=O)Nc3cnc(-n4nccn4)c(Cl)c3)c2C(F)(F)F)c1Cl` [Cpd 69, 1-(3-chloro-2-methylpyridin-4-yl)-N-(5-chloro-6-(2H-1,2,3-triazol-2-yl)pyridin-3-yl)-5-(trifluoromethyl)-1H-pyrazole-4-carboxamide], the pIC50 [1, 5] was 5.64, the pIC50 [2, 5] was 5.49 and the pIC50 [3, 6] was 5.68. It also gave a pIC50 [4] of 6.59.

`Cc1nccc(-n2ncc(C(=O)Nc3cnc(-n4nccn4)c(C#N)c3)c2C(F)(F)F)c1Cl` [Cpd 43, 1-(3-chloro-2-methylpyridin-4-yl)-N-(5-cyano-6-(2H-1,2,3-triazol-2-yl)pyridin-3-yl)-5-(trifluoromethyl)-1H-pyrazole-4-carboxamide] gave a pIC50 [1, 5] of 5.32, a pIC50 [2, 5] of 5.65 and a pIC50 [3, 6] of 5.20. It also gave a pIC50 [4] of 6.77.

With `N#Cc1cc(NC(=O)c2cnn(-c3ccncc3Cl)c2C(F)(F)F)cnc1-n1nccn1` [Cpd 45, 1-(3-chloropyridin-4-yl)-N-(5-cyano-6-(2H-1,2,3-triazol-2-yl)pyridin-3-yl)-5-(trifluoromethyl)-1H-pyrazole-4-carboxamide] the pIC50 [1, 5] was 6.79, the pIC50 [2, 5] was 6.47 and the pIC50 [3, 6] was 5.32. For the same molecule, the pIC50 [4] was 7.06.

In the case of `Cc1ccc(-n2ncc(C(=O)Nc3cnc(-n4nccn4)c(Cl)c3)c2C(F)(F)F)cc1` [Cpd 27, N-(5-chloro-6-(2H-1,2,3-triazol-2-yl)pyridin-3-yl)-1-(p-tolyl)-5-(trifluoromethyl)-1H-pyrazole-4-carboxamide], the pIC50 [1, 5] was 5.92, the pIC50 [2, 5] was 5.86 and the pIC50 [3, 6] was 5.41. For the same molecule, the pIC50 [4] was 6.07.

For `N#Cc1cc(NC(=O)c2cnn(-c3cccc4c3OCO4)c2C(F)(F)F)cnc1-n1nccn1` [Cpd 59, 1-(benzo[d][1,3]dioxol-4-yl)-N-(5-cyano-6-(2H-1,2,3-triazol-2-yl)pyridin-3-yl)-5-(trifluoromethyl)-1H-pyrazole-4-carboxamide], the pIC50 ([1]; TMD8, 24 h) was 7.46, the pIC50 ([2]; TMD8, 24 h) was 7.32 and the pIC50 ([3]; OCI-Ly3, 96 h) was 6.33. It also gave a pIC50 [4] of 7.39.

For `COc1nccc(-n2ncc(C(=O)Nc3cnc(-n4nccn4)c(C#N)c3)c2C(F)(F)F)c1Cl` [Cpd 32, 1-(3-Chloro-2-methoxypyridin-4-yl)-N-(5-cyano-6-(2H-1,2,3-triazol-2-yl)pyridin-3-yl)-5-(trifluoromethyl)-1H-pyrazole-4-carboxamide], the pIC50 [1, 5] was 5.95, the pIC50 [2, 5] was 6.19 and the pIC50 [3, 6] was 6.24. It also gave a pIC50 [4] of 6.23.

With `N#Cc1cc(NC(=O)c2cnn(-c3ncccc3Cl)c2C(F)(F)F)cnc1-n1nccn1` [Cpd 44, 1-(3-Chloropyridin-2-yl)-N-(5-cyano-6-(2H-1,2,3-triazol-2-yl)pyridin-3-yl)-5-(trifluoromethyl)-1H-pyrazole-4-carboxamide] the pIC50 [1, 5] was 6.31, the pIC50 [2, 5] was 5.91 and the pIC50 [3, 6] was 4.96. The pIC50 [4] was 6.41.

`N#Cc1cc(NC(=O)c2cnn(-c3c(Cl)cncc3Cl)c2C(F)(F)F)cnc1-n1nccn1` [Cpd 48, N-(5-cyano-6-(2H-1,2,3-triazol-2-yl)pyridin-3-yl)-1-(3,5-dichloropyridin-4-yl)-5-(trifluoromethyl)-1H-pyrazole-4-carboxamide] gave a pIC50 ([1]; TMD8, 24 h) of 5.79, a pIC50 ([2]; TMD8, 24 h) of 6.29 and a pIC50 ([3]; OCI-Ly3, 96 h) of 5.44. The pIC50 [4] was 6.69.

Work on `Cc1ccc(-n2ncc(C(=O)Nc3cnc(-n4nccn4)c(Cl)c3)c2C(F)(F)F)nc1` [Cpd 23, N-(5-chloro-6-(2H-1,2,3-triazol-2-yl)pyridin-3-yl)-1-(5-methylpyridin-2-yl)-5-(trifluoromethyl)-1H-pyrazole-4-carboxamide] yielded a pIC50 ([1]; TMD8, 24 h) of 6.05, a pIC50 ([2]; TMD8, 24 h) of 5.97 and a pIC50 ([3]; OCI-Ly3, 96 h) of 6.32. The pIC50 [4] was 6.03.
